Assay results from patent EP3549947B1, “POLYRGD PEPTIDES OBTAINED BY CHEMICAL AND BIOTECHNOLOGY METHODS WITH INJURY REDUCING AND/OR NEUROPROTECTIVE EFFECTS AND A KIT FOR THEIR ACTIVITY EVALUATION” (Uniwersytet Gdanski, priority 2018, dated 2019).
“Also recorded” adds a separate entry of the source.

Assays:
[1] = test system: primary neural cells; experiment: Multifactorial in vitro model of neurological injury (six injury factors), CellTiterBlue viability; assay type: cell-based, Wistar rat; details: 1-hour injury factor (glucose deprivation, acidosis pH 6.35 + 200 mM sodium lactate, 10 mM sodium azide, 400 µM glutamic acid, 800 µM NMDA or 800 µM kainic acid), then 20 hour incubation with 100 µM peptide (RGD10: 1 µg/ml)
Method: (§1) Primary neural cortical cultures were obtained from Wistar rat E18.5 embryos. To this end, pregnant rat females were anesthetized and euthanized in a CO2 chamber. In some cases, euthanasia was performed by isoflurane. The cortex tissue was excised from the isolated embryos and washed with HBSS buffer, supplemented with a mixture of penicillin and streptomycin, and HEPES. Afterwards, the cortex tissue was trypsinized for 10 minutes at 37 °C and homogenized mechanically in order to disintegrate the tissue to the form of a cell suspension. The cells were the centrifuged at 300 rcf for 4 minutes, resuspended once more in HBSS and quantified in a Bürker chamber in order to obtain a cell suspension of proper density. […]
(§2) A subject of the invention constitutes a diagnostic methodology for measuring the neuroprotective activity of peptides in a model of several factors co-occurring during any neurological injury. […] These injury conditions were optimized so that the strength of each injury factor causes a 30-40% decrease in response in a CellTiterBlue-based evaluation (a CTB fluorophore in a modified biochemical assay of the MTT type) of cellular viability, relying on quantitative analysis of mitochondrial metabolic functions. […] The fluorescence intensity of the CTB agent is measured spectrofluorimetically (560ex/590em) and is proportional to the number of living cells. […]

[2] = test system: primary neural cortical cultures; experiment: Viability assay (CellTiterBlue) of primary neural cultures exposed to polyRGD peptides; assay type: cell-based, Wistar rat; details: reference peptide at 50 µM, 20 hour exposure
Method: as §1, §2

| Molecule | injury-reducing and/or neuroprotective activity (neural cell viability) [1] | injury-reducing and/or neuroprotective activity (neural cell viability) ([1]; listed as RGD 1) | cytotoxic effects (viability of neural culture) [2] |
| --- | --- | --- | --- |
| N=C(N)NCCC[C@H](N)C(=O)NCC(=O)N[C@@H](CC(=O)O)C(N)=O [RGD1, H2N-RGD-amide] | significant increase in neural cell viability with regard to all injury factors; also recorded: significant injury-reducing and/or neuroprotective efficacy with respect to all six injury factors | broadest spectrum of activity | – |
| Tat(49-57)NH2 [TAT peptide] | – | – | None of the analyzed peptides displayed significant cytotoxic effects in the assessed concentration ranges, as well as a reference factor |
